Measurements published in PMC11062922 (Nature Chemical Biology, 2023).

Tests used:
[1] = tested on: AIFM1; test: Kinobeads competition binding: AIFM1; parameters: species or system human; conditions: target AIFM1
[2] = tested on: MAP4K3; test: Kinobeads competition binding: MAP4K3; parameters: species or system human; conditions: target MAP4K3
[3] = molecular target: T1, CDK7 (Homo sapiens, UniProt P50613); test: Kinobeads competition binding: CDK7; conditions: target CDK7
T1 construct: endogenous in cells

[4] = tested on: ATR; test: Kinobeads competition binding: ATR; parameters: species or system human; conditions: target ATR
[5] = tested on: CDK16; test: Kinobeads competition binding: CDK16; parameters: species or system human; conditions: target CDK16
[6] = tested on: GALK1; test: Kinobeads competition binding: GALK1; parameters: species or system human; conditions: target GALK1
[7] = tested on: MAP4K2; test: Kinobeads competition binding: MAP4K2; parameters: species or system human; conditions: target MAP4K2
[8] = tested on: CDK12; test: Kinobeads competition binding: CDK12; parameters: species or system human; conditions: target CDK12
[9] = molecular target: T2, IKBKE (Homo sapiens, UniProt Q14164); test: Kinobeads competition binding: IKBKE; conditions: target IKBKE
T2 construct: endogenous in cells
T2 sequence (Q14164 1-716): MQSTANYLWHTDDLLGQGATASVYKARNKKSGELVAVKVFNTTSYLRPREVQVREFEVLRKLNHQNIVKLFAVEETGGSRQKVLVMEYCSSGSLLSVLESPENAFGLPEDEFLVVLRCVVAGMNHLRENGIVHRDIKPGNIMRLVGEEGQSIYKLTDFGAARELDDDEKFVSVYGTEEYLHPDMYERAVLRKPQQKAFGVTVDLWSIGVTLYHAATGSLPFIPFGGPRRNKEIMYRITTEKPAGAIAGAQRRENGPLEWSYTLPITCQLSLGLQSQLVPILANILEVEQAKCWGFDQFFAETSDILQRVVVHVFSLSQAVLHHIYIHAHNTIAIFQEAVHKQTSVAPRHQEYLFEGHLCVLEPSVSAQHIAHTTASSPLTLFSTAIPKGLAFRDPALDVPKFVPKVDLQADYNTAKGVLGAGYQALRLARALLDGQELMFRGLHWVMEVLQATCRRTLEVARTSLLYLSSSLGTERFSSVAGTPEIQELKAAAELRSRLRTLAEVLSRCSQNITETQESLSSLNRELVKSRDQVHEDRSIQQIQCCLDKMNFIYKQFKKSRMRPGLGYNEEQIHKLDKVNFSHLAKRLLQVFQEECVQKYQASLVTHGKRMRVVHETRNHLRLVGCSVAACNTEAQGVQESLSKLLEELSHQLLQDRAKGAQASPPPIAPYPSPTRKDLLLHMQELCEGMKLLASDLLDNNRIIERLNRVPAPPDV

[10] = molecular target: T3, PHKG2 (Homo sapiens, UniProt P15735); test: Kinobeads competition binding: PHKG2; conditions: target PHKG2
T3 construct: a mixture of lysates from five cancer cell lines; endogenous in cells
T3 sequence (P15735 1-406): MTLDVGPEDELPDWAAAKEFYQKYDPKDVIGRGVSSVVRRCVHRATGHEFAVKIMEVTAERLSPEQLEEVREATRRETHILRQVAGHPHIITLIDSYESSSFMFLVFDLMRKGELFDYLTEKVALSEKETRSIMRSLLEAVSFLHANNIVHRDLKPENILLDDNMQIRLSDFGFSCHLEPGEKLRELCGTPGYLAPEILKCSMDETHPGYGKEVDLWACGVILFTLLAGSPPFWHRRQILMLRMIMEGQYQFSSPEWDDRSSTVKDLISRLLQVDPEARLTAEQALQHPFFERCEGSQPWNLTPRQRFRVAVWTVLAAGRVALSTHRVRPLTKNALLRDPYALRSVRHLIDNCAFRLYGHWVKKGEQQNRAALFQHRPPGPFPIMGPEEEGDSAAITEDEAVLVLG

[11] = molecular target: T4, EPHB1 (Homo sapiens, UniProt P54762); test: Kinobeads competition binding: EPHB1; conditions: target EPHB1
T4 construct: endogenous in cells
T4 sequence (P54762 18-984): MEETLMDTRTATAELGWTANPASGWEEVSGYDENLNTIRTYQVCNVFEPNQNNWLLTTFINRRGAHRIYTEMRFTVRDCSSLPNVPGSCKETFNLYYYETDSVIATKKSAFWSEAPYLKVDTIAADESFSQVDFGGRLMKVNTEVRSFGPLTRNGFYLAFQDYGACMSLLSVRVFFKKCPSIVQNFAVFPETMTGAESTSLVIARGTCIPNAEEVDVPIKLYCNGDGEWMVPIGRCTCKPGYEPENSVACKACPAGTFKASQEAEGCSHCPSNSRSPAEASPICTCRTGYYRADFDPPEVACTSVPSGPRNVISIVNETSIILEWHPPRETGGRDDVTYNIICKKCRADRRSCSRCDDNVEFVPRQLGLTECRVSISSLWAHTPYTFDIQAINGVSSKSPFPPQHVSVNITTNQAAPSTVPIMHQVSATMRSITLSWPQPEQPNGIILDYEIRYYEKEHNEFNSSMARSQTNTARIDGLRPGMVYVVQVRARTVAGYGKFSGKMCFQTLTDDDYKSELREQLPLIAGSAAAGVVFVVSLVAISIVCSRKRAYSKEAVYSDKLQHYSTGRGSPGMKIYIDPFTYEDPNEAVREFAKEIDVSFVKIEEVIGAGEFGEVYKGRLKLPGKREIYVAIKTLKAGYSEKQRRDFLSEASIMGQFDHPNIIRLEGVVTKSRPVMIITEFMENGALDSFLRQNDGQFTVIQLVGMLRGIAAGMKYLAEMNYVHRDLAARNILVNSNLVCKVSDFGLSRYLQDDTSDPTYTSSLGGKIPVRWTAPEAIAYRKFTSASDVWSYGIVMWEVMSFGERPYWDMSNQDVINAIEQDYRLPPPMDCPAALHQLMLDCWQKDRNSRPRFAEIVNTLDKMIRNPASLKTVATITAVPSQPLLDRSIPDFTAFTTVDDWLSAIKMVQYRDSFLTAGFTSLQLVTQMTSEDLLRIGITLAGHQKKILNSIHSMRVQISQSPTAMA
Text: Supplement 41589_2023_1459_MOESM4_ESM.xlsx, sheet "CATDS matrix" | column: EPHB1

[12] = tested on: AGK; test: Kinobeads competition binding: AGK; parameters: species or system human; conditions: target AGK
[13] = molecular target: T5, MAPKAPK2 (Homo sapiens, UniProt P49137); test: Kinobeads competition binding: MAPKAPK2; conditions: target MAPKAPK2
T5 construct: endogenous in cells

[14] = tested on: MAP2K6; test: Kinobeads competition binding: MAP2K6; parameters: species or system human; conditions: target MAP2K6
[15] = tested on: MTOR; test: Kinobeads competition binding: MTOR; parameters: species or system human; conditions: target MTOR

T5 sequence (P49137 whole entry): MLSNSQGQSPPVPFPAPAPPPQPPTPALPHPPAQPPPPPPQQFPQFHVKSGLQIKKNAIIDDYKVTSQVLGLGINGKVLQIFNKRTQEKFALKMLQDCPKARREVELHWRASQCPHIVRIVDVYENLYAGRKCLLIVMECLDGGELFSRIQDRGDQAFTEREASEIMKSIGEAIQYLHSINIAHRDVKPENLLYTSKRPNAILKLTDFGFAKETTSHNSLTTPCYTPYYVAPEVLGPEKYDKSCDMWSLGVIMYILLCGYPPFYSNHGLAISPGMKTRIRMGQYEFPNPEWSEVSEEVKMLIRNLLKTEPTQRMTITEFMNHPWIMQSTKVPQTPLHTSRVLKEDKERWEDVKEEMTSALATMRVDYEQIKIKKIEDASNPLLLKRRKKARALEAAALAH
T1 sequence (P50613 whole entry): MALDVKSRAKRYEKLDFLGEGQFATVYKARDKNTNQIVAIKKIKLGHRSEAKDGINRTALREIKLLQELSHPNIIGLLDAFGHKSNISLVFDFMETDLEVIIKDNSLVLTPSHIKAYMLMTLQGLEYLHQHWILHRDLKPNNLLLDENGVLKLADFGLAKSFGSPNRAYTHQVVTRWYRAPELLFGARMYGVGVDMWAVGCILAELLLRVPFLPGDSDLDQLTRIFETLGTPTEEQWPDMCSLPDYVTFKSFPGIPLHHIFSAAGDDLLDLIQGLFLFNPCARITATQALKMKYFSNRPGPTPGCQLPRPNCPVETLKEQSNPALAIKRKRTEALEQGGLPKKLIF

SMILES	CATDS [1]	CATDS [2]	CATDS [3]	CATDS [4]	CATDS [5]	CATDS [6]	CATDS [7]	CATDS [8]	CATDS [9]	CATDS [10]	CATDS [11]	CATDS [12]	CATDS [13]	CATDS [14]	CATDS [15]
Nc1ncnc2[nH]c(-c3ccccc3)nc12 [AH5015_KCGS]	0	0	0.1088	0	0	0	0	0	0	0	0	0	0	0	0
CCc1cc2c(cc1N1CCC(N3CCOCC3)CC1)C(C)(C)c1[nH]c3cc(C#N)ccc3c1C2=O [Alectinib]	0	0	0	0	0	0	0	0	0	0	0	0	0	0	0
CCN1CCN(Cc2ccc(Nc3ncc(F)c(-c4cc(F)c5nc(C)n(C(C)C)c5c4)n3)nc2)CC1 [Abemaciclib]	0	0	0	0	0.02651	0	0	0	0	0	0	0	0	0	0
CN(C)C/C=C/C(=O)Nc1cc2c(Nc3ccc(F)c(Cl)c3)ncnc2cc1O[C@H]1CCOC1 [Afatinib]	0			0		0		0			0	0			
N#CC1(c2ccc(NC(=O)c3cccnc3NCc3ccncc3)cc2)CCCC1 [Apatinib]	0	0	0	0	0	0	0	0	0	0	0	0	0	0	0
